{"source": "patent EP4252752A1", "about": "“DRUG FOR TREATMENT OR PREVENTION OF CEREBRAL HEMORRHAGE, AND METHOD FOR TREATMENT OR PREVENTION OF CEREBRAL HEMORRHAGE USING SAID DRUG” (Biogen MA Inc., priority 2020, dated 2022)", "type_in_all_cases": "in vivo, SD rats", "key": {"[1]": {"system": "cleaved caspase-3 (Asp175)", "experiment": "Antibody staining of brain sections for cleaved caspase-3 (Example 8)", "settings": "SMTP-7 test solution as in example 1, cerebral cortex, day 7, FIG. 22-24", "protocol": "(§1) Eight to 10 week old male SD rats (250 to 300 g body weight) were kept under a 12-hour light/dark cycle and a temperature of 22°C ± 1°C. The rats were raised in plastic cages and given free access to water and feed. The number of rats used in each experiment was n = 4 unless otherwise indicated. Moreover, a component other than those listed in the injection solution was physiological saline.\n(§2) The rats were anesthetized with isoflurane (1.5% isoflurane + 66% NO + 33% O2) and then injected with collagenase from clostridium histolyticum (type IV, made by Sigma-Aldrich) at a concentration of 0.25 U/µL at a position 3 mm lateral from the center of the brain, at bregma level in the anteroposterior direction and 5 mm behind the stria vascularis using a syringe to inject for 5 minutes at a rate of 0.2 µL/min, then the syringe needle was held at that position for 10 minutes, and then slowly withdrawn over another 10 minutes (0.5 mm per minute). Note that care was taken to prevent backflow during injection. In the following description, the day of this collagenase injection is referred to as day 0. This collagenase injection causes an intracerebral hemorrhage and the formation of a hematoma. […]"}, "[2]": {"system": "animal model of cerebral hemorrhage", "experiment": "Hematoxylin-eosin (HE) staining of brain sections, hematoma area (Example 6)", "settings": "SMTP-7 test solution as in example 1; sections on day 7 after collagenase injection; FIG. 17-18", "protocol": "as §1, §2"}, "[3]": {"system": "animal model of cerebral hemorrhage", "experiment": "Barnes maze test, collagenase-induced intracerebral hemorrhage (Example 4)", "settings": "SMTP-7 test solution as in example 1; day 7 to day 10 after collagenase injection; FIG. 11-15", "protocol": "as §1\nas §2, with “0.” for “0. This collagenase injection causes an intracerebral hemorrhage and the formation of a hematoma.”\nCollagenase injection and test solution injection were performed as in example 1, and a Barnes maze test (Barnes maze test) was performed on day 7 after collagenase injection. […] The time it took to reach the escape box and the number of holes where the rats incorrectly stayed at were evaluated. […]"}, "[4]": {"system": "animal model of cerebral hemorrhage", "experiment": "Small animal MRI (T2-weighted) of hematoma and edema, collagenase-induced intracerebral hemorrhage (Example 3)", "settings": "SMTP-7 test solution as in example 1", "protocol": "as §1\nas §2, with “0.” for “0. This collagenase injection causes an intracerebral hemorrhage and the formation of a hematoma.”\nCollagenase injection and test solution injection were performed as in example 1, and rat brains were measured by small animal MRI on days 1 and 7 after collagenase injection (PharmaScan made by Bruker BioSpin). […] The volume of hematomas was measured based on these MRI measurements using Imaged. […]"}, "[5]": {"system": "animal model of cerebral hemorrhage", "experiment": "Hematoma volume in brain sections, collagenase-induced intracerebral hemorrhage (Example 1)", "settings": "2 mg/mL solution of SMTP-7 injected into the brain at 0.2 µL/min over 10 minutes, 24 hours after collagenase injection; brain sections on day 7; FIG. 1A-1C, FIG. 2", "protocol": "as §1, §2\nMoreover, the ratio of volume of hematoma to the volume of the entire brain was also measured using Imaged. […]"}, "[6]": {"system": "animal model of cerebral hemorrhage", "experiment": "Luxol fast blue and Cresyl violet double staining, myelin density in white matter (Example 7)", "settings": "SMTP-7 test solution as in example 1; ipsilateral, contralateral and central sites; day 7; FIG. 19-21", "protocol": "as §1, §2"}, "Iba-1": {"system": "Iba-1", "experiment": "Antibody staining of brain sections with anti-Iba-1 antibodies (Example 10)", "settings": "SMTP-7 test solution as in example 1; day 7; FIG. 28-30", "protocol": "as §1, §2"}, "[7]": {"system": "animal model of cerebral hemorrhage", "experiment": "LAN cable walking test of motor function, collagenase-induced intracerebral hemorrhage (Example 5)", "settings": "SMTP-7 test solution as in example 1; observed for 60 seconds on LAN cable; FIG. 16", "protocol": "as §1, §2\nCollagenase injection and test solution injection were performed as in example 1, and the motor function of rats was evaluated by having the rats walk on a local area network (LAN) cable. […]"}, "GFAP": {"system": "GFAP", "experiment": "Antibody staining of brain sections with anti-GFAP antibodies (Example 9)", "settings": "SMTP-7 test solution as in example 1; day 7; FIG. 25-27", "protocol": "as §1, §2"}, "[8]": {"system": "animal model of cerebral hemorrhage", "experiment": "Evans blue staining of brain sections, collagenase-induced intracerebral hemorrhage (Example 2)", "settings": "SMTP-7 test solution as in example 1; 2% Evans blue into tail vein 1 hour before sacrifice, day 7; FIG. 3A-3D, 4, 5", "protocol": "as §1\nThe rats were anesthetized with isoflurane (1.5% isoflurane + 66% NO + 33% O2) and then injected with collagenase from clostridium histolyticum (type IV, made by Sigma-Aldrich) at a concentration of 0.25 U/µL at a position 3 mm lateral from the center of the brain, at bregma level in the anteroposterior direction and 5 mm behind the stria vascularis using a syringe to inject for 5 minutes at a rate of 0.2 µL/min, then the syringe needle was held at that position for 10 minutes, and then slowly withdrawn over another 10 minutes (0.5 mm per minute). […]\nThe same experiment as in example 1 was performed again. […] Micrographs of whole brains and 3 mm thick sections are illustrated in FIG. 3A to FIG. 3D, and the total area (mm^2) of Evans blue-stained region and staining density determined from the sections using Imaged are shown in FIG. 4 and FIG. 5. […] In FIG. 5, the vertical axis represents the concentration value of Evans blue expressed as absorbance at a wavelength of 620 nm."}}}
{"smiles": "CC(C)=CCC/C(C)=C/CC[C@]1(C)Oc2c(c(O)cc3c2CN(CCC[C@@H](C(=O)O)N2Cc4c(cc(O)c5c4O[C@@](C)(CC/C=C(\\C)CCC=C(C)C)[C@@H](O)C5)C2=O)C3=O)C[C@@H]1O", "note": "[SMTP-7]", "values": [{"measurement": "number of cells expressing caspase-3 (immunopositive cells per 100 µm^2 of ROI), contralateral", "setting": "[1]; contralateral to collagenase injection", "result": "markedly reduced"}, {"measurement": "number of cells expressing caspase-3 (immunopositive cells per 100 µm^2 of ROI), ipsilateral", "setting": "[1]; ipsilateral to collagenase injection", "result": "markedly reduced"}, {"measurement": "area of the hematoma region identified by HE staining", "setting": "[2]", "result": "marked reduction in hematoma"}, {"measurement": "learning ability: time required to reach the escape box and number of incorrect holes", "setting": "[3]", "result": "marked improvement in learning ability"}, {"measurement": "volume ratio of hematoma in the T2-weighted MRI image", "setting": "[4]; MRI on days 1 and 7 after collagenase injection, FIG. 6-8", "result": "marked reduction in both hematoma and edema"}, {"measurement": "ratio of cerebral edema volume in brain volume (MRI)", "setting": "[4]; day 7 after collagenase injection, FIG. 9-10", "result": "marked reduction in both hematoma and edema"}, {"measurement": "ratio of volume of hematoma to the volume of the entire brain", "setting": "[5]", "result": "marked reduction in hematoma"}, {"measurement": "white matter lesions (demyelination): myelin density in white matter", "setting": "[6]", "result": "marked suppression of hematoma lesions"}, {"measurement": "inflammation: immunostaining using antibodies against Iba-1, number of immunopositive cells", "setting": "Iba-1", "result": "significantly suppressed"}, {"measurement": "motor ability: total score (0 to 10) in LAN cable walking test", "setting": "[7]", "result": "marked improvement in motor ability"}, {"measurement": "neuron damage: immunostaining using antibodies against GFAP, number of immunopositive cells", "setting": "GFAP", "result": "significantly suppressed"}, {"measurement": "hematoma: total area of Evans blue-stained region and staining density", "setting": "[8]", "result": "marked reduction in hematoma"}]}
